Measured values published in the NIST ThermoML archive (doi:10.1021/je050048y).
Numbers after ± are expanded uncertainties.

Experiment: mn = molality of the nth substance listed, in mol/kg
Conditions: 298.15 K, 101 kPa, Liquid

| Structure (SMILES) | viscosity (m1 = 0.4991) | viscosity (m1 = 1.999) | viscosity (m1 = 3) | viscosity (m1 = 0.1003) | viscosity (m1 = 0.4995) | viscosity (m1 = 0.7497) | viscosity (m1 = 1) |
| --- | --- | --- | --- | --- | --- | --- | --- |
| NCC(=O)O [2-aminoacetic acid] + O | 0.956 ± 0.036 mPa·s | 1.189 ± 0.043 mPa·s | 1.374 ± 0.049 mPa·s |  |  |  |  |
| C[C@H](N)C(=O)O [(S)-2-aminopropanoic acid] + O |  |  |  | 0.918 ± 0.034 mPa·s | 1.017 ± 0.038 mPa·s | 1.079 ± 0.04 mPa·s | 1.152 ± 0.042 mPa·s |
